Usually Ki stands for the dissociation constant of the complex between target and ligand, obtained from inhibition or displacement.

Holding throughout (format): biochemical
One assay concerns the target T1, TYK2 (Homo sapiens, UniProt P29597).
T1 construct: made in house; host or cells: SF9 insect cells (baculovirus)
T1 sequence (P29597 873-1187): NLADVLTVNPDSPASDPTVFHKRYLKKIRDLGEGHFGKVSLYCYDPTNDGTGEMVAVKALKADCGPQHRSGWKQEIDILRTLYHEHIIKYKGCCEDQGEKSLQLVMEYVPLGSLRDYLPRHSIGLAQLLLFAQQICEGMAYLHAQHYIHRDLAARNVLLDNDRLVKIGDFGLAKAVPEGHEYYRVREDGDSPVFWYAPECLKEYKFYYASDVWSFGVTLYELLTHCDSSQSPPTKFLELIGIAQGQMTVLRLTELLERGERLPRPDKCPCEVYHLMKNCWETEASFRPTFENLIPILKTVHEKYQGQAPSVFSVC
The assay can be described thus: TYK2 inhibition (Table 4).

The next assay addresses T2, JAK2 (Homo sapiens, UniProt O60674).
T2 construct: made in house; host or cells: SF9 insect cells (baculovirus)
As to the kind of experiment: JAK2 inhibition (Table 4). The conditions noted are these: read-out: JAK2 Ki.

A further assay has as its target T3, JAK1 (Homo sapiens, UniProt P23458).
T3 construct: made in house; host or cells: SF9 insect cells (baculovirus)
As to the kind of experiment: JAK1 inhibition (Table 4). The conditions noted are these: read-out: JAK1 Ki.

In another assay the target is T4, JAK3 (Homo sapiens, UniProt P52333).
T4 construct: made in house; host or cells: SF9 insect cells (baculovirus)
The assay can be described thus: JAK3 inhibition (Table 4). The conditions noted are these: read-out: JAK3 Ki.

T4 sequence (P52333 783-1124): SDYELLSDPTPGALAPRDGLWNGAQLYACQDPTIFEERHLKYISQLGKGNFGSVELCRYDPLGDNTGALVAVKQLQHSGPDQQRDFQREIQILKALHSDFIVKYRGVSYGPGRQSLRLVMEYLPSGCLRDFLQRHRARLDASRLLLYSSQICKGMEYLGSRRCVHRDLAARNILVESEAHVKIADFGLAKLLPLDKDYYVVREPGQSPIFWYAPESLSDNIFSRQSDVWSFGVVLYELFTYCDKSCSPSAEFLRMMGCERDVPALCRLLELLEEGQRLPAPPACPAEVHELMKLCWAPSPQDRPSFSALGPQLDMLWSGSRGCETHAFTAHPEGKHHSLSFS
T3 sequence (P23458 852-1154): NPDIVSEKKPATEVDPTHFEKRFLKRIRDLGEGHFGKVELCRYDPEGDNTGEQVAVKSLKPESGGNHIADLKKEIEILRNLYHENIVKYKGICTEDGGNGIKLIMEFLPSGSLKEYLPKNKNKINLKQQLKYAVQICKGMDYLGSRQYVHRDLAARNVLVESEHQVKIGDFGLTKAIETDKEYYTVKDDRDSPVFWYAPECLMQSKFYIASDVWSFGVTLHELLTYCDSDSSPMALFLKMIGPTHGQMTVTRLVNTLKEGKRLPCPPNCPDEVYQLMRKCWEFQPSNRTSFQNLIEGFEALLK
T2 sequence (O60674 812-1132): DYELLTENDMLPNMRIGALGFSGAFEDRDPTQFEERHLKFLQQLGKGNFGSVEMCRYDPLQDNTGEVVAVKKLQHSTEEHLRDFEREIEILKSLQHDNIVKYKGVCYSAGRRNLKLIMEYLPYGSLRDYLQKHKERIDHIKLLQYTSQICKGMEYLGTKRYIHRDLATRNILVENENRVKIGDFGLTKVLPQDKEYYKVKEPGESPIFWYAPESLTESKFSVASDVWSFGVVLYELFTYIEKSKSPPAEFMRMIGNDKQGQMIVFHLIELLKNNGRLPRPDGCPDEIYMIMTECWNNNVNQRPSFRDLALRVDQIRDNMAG

As to `CNC(=O)OC1CCC(n2c(C)nc3cnc4[nH]ccc4c32)CC1` (stereo not shown) [Example 751, methyl-carbamic acid 4-(2-methyl-6H-1,3,5,6-tetraaza-as-indacen-1-yl)-cyclohexyl ester], the inhibition constant (Ki) at TYK2 came out at 0.0839 µM; at JAK2 it was 0.0279 µM; at JAK1 it was 0.00783 µM; on JAK3, 0.0794 µM.

`CC1(n2cnc3cnc4[nH]ccc4c32)CCN(S(=O)(=O)c2cccnc2)CC1` [Example 753, 1-[4-Methyl-1-(pyridine-3-sulfonyl)-piperidin-4-yl]-1,6-dihydro-1,3,5,6-tetraaza-as-indacene]: the Ki is 0.289 µM at TYK2, 0.0761 µM at JAK2, 0.0184 µM at JAK1 and 0.296 µM on JAK3.

Regarding `CC1(n2cnc3cnc4[nH]ccc4c32)CCN(Cc2cccc(C#N)c2)CC1` [Example 754, 3-[4-Methyl-4-(6H-1,3,5,6-tetraaza-as-indacen-1-yl)-piperidin-1-ylmethyl]-benzonitrile], the inhibition constant Ki on TYK2 was found to be 2.37 µM; at JAK2, 0.286 µM; at JAK1, 0.0404 µM; at JAK3, 0.961 µM.

With `CC1(n2cnc3cnc4[nH]ccc4c32)CCN(Cc2cncs2)CC1` [Example 755, 1-(4-Methyl-1-thiazol-5-ylmethyl-piperidin-4-yl)-1,6-dihydro-1,3,5,6-tetraaza-as-indacene], the Ki on TYK2 turned out to be 0.211 µM; on JAK2, 0.0337 µM; at JAK1 it was 0.00715 µM; at JAK3, 0.0931 µM.

Turning to `CC1(n2cnc3cnc4[nH]ccc4c32)CCN(Cc2ccnc(C#N)c2)CC1` [Example 756, 4-[4-Methyl-4-(6H-1,3,5,6-tetraaza-as-indacen-1-yl)-piperidin-1-ylmethyl]-pyridine-2-carbonitrile], the Ki at TYK2 stood at 1.12 µM; at JAK2 it was 0.259 µM; on JAK1 it was 0.0361 µM; at JAK3, 0.617 µM.

As to `CCS(=O)(=O)N1CCC(C)(n2cnc3cnc4[nH]ccc4c32)CC1` [Example 757, 1-(1-Ethanesulfonyl-4-methyl-piperidin-4-yl)-1,6-dihydro-1,3,5,6-tetraaza-as-indacene], the inhibitory constant (Ki) on TYK2 was 0.0338 µM; at JAK2, 0.01 µM; at JAK1 it was 0.00206 µM; at JAK3, 0.0828 µM.

With `Cc1nc2cnc3[nH]ccc3c2n1C1(C)CCN(Cc2ccnc(C#N)c2)CC1` [Example 758, 4-[4-Methyl-4-(2-methyl-6H-1,3,5,6-tetraaza-as-indacen-1-yl)-piperidin-1-ylmethyl]-pyridine-2-carbonitrile], the Ki on TYK2 was 1.01 µM; at JAK2 it was 0.205 µM; at JAK1 it was 0.0408 µM; on JAK3, 0.598 µM.

Consider `CC(O)c1nc2cnc3[nH]ccc3c2n1C1CCN(CCC(F)(F)F)CC1` (stereo not shown) [Example 759, 1-{1-[1-(3,3,3-Trifluoro-propyl)-piperidin-4-yl]-1,6-dihydro-1,3,5,6-tetraaza-as-indacen-2-yl}-ethanol], for which the inhibition constant (Ki) came to 0.109 µM at TYK2, 0.118 µM on JAK2, 0.00713 µM on JAK1 and 0.0372 µM on JAK3.

`OCc1nc2cnc3[nH]ccc3c2n1C1CCN(CCC(F)(F)F)CC1` [Example 760, {1-[1-(3,3,3-Trifluoro-propyl)-piperidin-4-yl]-1,6-dihydro-1,3,5,6-tetraaza-as-indacen-2-yl}-methanol]: the inhibitory constant (Ki) on TYK2 was determined as 0.0254 µM; on JAK2, 0.023 µM; at JAK1 it was 0.00346 µM; on JAK3, 0.0217 µM.

As to `OCc1nc2cnc3[nH]ccc3c2n1C1CCN(CC(F)(F)F)CC1` [Example 761, {1-[1-(2,2,2-Trifluoro-ethyl)-piperidin-4-yl]-1,6-dihydro-1,3,5,6-tetraaza-as-indacen-2-yl}-methanol], the inhibition constant (Ki) amounted to 0.01 µM at TYK2, 0.0085 µM at JAK2, 0.00159 µM at JAK1 and 0.0226 µM on JAK3.

Consider `Cc1nc2cnc3[nH]ccc3c2n1C1CCN(CC(F)F)CC1` [Example 762, 1-[1-(2,2-Difluoro-ethyl)-piperidin-4-yl]-2-methyl-1,6-dihydro-1,3,5,6-tetraaza-as-indacene], for which the Ki turned out to be 0.00488 µM on TYK2, 0.00265 µM at JAK2, 0.00089 µM on JAK1 and 0.00551 µM on JAK3.

`COCCN(C)C(=O)NC1CCC(n2cnc3cnc4[nH]ccc4c32)CC1` (stereo not shown) [Example 763, 1-(2-Methoxy-ethyl)-1-methyl-3-[4-(6H-1,3,5,6-tetraaza-as-indacen-1-yl)-cyclohexyl]-urea]: the inhibition constant (Ki) was determined as 0.223 µM at TYK2, 0.0422 µM at JAK2, 0.0125 µM at JAK1 and 0.278 µM at JAK3.

As to `Cc1nc2cnc3[nH]ccc3c2n1C1CCN(C(=O)NCC(F)(F)F)CC1` [Example 764, 4-(2-Methyl-6H-1,3,5,6-tetraaza-as-indacen-1-yl)-piperidine-1-carboxylic acid (2,2,2-trifluoro-ethyl)-amide], the Ki stood at 0.859 µM on TYK2, 0.441 µM at JAK2, 0.0881 µM on JAK1 and 0.609 µM on JAK3.

In the case of `Cc1nc2cnc3[nH]ccc3c2n1C1CCN(C(=O)NCCC(F)(F)F)CC1` [Example 765, 4-(2-Methyl-6H-1,3,5,6-tetraaza-as-indacen-1-yl)-piperidine-1-carboxylic acid (3,3,3-trifluoro-propyl)-amide], the Ki was 2.84 µM at TYK2, 0.872 µM on JAK2, 0.275 µM at JAK1 and 2.21 µM on JAK3.

On to `O=S1(=O)CCN(C2CCC(n3cnc4cnc5[nH]ccc5c43)CC2)CC1` (stereo not shown) [Example 766, 1-[4-(1,1-Dioxo-thiomorpholin-4-yl)-cyclohexyl]-1,6-dihydro-1,3,5,6-tetraaza-as-indacene], for which the Ki at TYK2 is 0.0211 µM; at JAK2 it was 0.00307 µM; on JAK1 it was 0.00097 µM; at JAK3, 0.0685 µM.

`Cc1nc2cnc3[nH]ccc3c2n1C1CCC(N2CCC(F)(F)CC2)CC1` (stereo not shown) [Example 767, 1-[4-(4,4-Difluoro-piperidin-1-yl)-cyclohexyl]-2-methyl-1,6-dihydro-1,3,5,6-tetraaza-as-indacene]: the inhibition constant (Ki) stood at 0.0369 µM at TYK2, 0.0107 µM at JAK2, 0.00281 µM on JAK1 and 0.155 µM at JAK3.

As to `Cc1nc2cnc3[nH]ccc3c2n1C1CCC(N2CCC(C#N)CC2)CC1` (stereo not shown) [Example 768, 1-[4-(2-Methyl-6H-1,3,5,6-tetraaza-as-indacen-1-yl)-cyclohexyl]-piperidine-4-carbonitrile], the Ki on TYK2 was found to be 0.0234 µM; at JAK2, 0.00647 µM; on JAK1, 0.00177 µM; at JAK3, 0.0859 µM.

On to `CNC(=O)OC1CCC(n2cnc3cnc4[nH]ccc4c32)CC1` (stereo not shown) [Example 769, Methyl-carbamic acid 4-(6H-1,3,5,6-tetraaza-as-indacen-1-yl)-cyclohexyl ester], for which the Ki at TYK2 is 0.0625 µM; at JAK2, 0.0166 µM; on JAK1, 0.0096 µM; on JAK3, 0.104 µM.

With `COCCNc1nc2cnc3[nH]ccc3c2n1C1CCN(CCC#N)CC1` [Example 770, 3-{4-[2-(2-Methoxy-ethylamino)-6H-1,3,5,6-tetraaza-as-indacen-1-yl]-piperidin-1-yl}-propionitrile], the inhibitory constant (Ki) on TYK2 was 0.207 µM; at JAK2, 0.0327 µM; on JAK1, 0.0088 µM; on JAK3, 0.0427 µM.

(Values after patent US8461328B2, “Tricyclic heterocyclic compounds, compositions and methods of use thereof” (Genentech, Inc., priority 2010, dated 2013).)
